From publication PMC7411736, “Effects of Sesamin, the Major Furofuran Lignan of Sesame Oil, on the Amplitude and Gating of Voltage-Gated Na^+ and K^+ Currents” (Molecules, 2020)

Test system: resurgent INa (INa(R)) in GH3 cells
Experiment: Whole-cell patch-clamp of resurgent INa (step to +20 mV, repolarization to −50 to 0 mV)
Assay type: cell-based, rat
Conditions: 1 μM; at −30 mV; control 46 ± 6 pA; n = 8
Description: We next wanted to determine whether SSM exerts any effects on INa(R) identified from these cells. The whole-cell experiments on INa(R) were undertaken when each cell was voltage clamped at −80 mV and a brief depolarizing step to +20 mV was delivered to activate transient INa. The INa(R) upon repolarization to various potentials ranging between −50 and 0 mV was thereafter measured at the end of voltage pulses (Figure 4). The effect of SSM on INa(R) was examined at various membrane potentials, and the I-V relationship of INa(R) with or without the addition of SSM was constructed. […]
On the day of each experiment, cells were dispersed with a 1% trypsin/EDTA solution and a few drops of cell suspension were rapidly placed in a custom-built recording chamber mounted on the stage of an inverted DM-IL microscope (Leica; Major Instruments, Kaohsiung, Taiwan). […] We measured ion currents in the whole-cell model of a standard patch-clamp technique with dynamic adaptive suctioning (i.e., decremental change of suction pressure in response to a progressive increase in the electrode resistance), with the aid of an RK-400 (Bio-Logic, Claix, France) or an Axopatch-200B (Molecular Devices, Sunnyvale, CA) patch amplifier. […] During the measurements, the recorded area on the vibration-free table was shielded by using a Faraday cage (Scitech, Seoul, South Korea). […]

How did the “INa(R) amplitude” value turn out when `c1cc2c(cc1[C@H]1OC[C@H]3[C@@H]1CO[C@@H]3c1ccc3c(c1)OCO3)OCO2` [SSM, [1S-(1α,3aα,4α,6aα)] -5,5’- (tetrahydro-1H,3H-furo [3–4-c]furan-1,4-diyl)bis-1,3-benzodioxole] was run?
Its value is 22 ± 5 pA.
